Consider one sequence from article PMC9589981, “High-Resolution Epitope Mapping and Affinity Binding Analysis Comparing a New Anti-Human LAG3 Rabbit Antibody Clone to the Commonly Used Mouse 17B4 Clone” (Antibodies, 2022).

In the experiment the test system is mouse 17B4 antibody (binding to LAG3 from HH cell lysate). Kind of experiment: ACE (automated capillary electrophoresis) peptide inhibition assay, 17B4. The following applies: result in words, peptide at 5000 nM and 500 nM.

Method: For each assay run, HH cell lysate was mixed with 0.1× WES sample buffer reagent, and reconstituted WES 5× Fluorescent Mix reagent followed by denaturation at 95 °C for 3 min and then held on ice followed until use. Denatured sample was added to each of the designated wells of the separation module sampling plate. Dilutions of the stock rabbit SP464 and mouse 17B4 monoclonal antibodies were made to the desired concentrations using the WES detection module Antibody Dilution Buffer 2 reagent. Diluted antibody solutions were added to the designated wells of the separation module sampling plate. The remaining WES assay reagents were finally added to the plate and then processed in the WES instrument using the default running and detection parameters.
HH cell lysate samples were prepared and used as above for antibody titration assays. Rabbit SP464 and mouse 17B4 antibodies were diluted to 4 µg/mL in the WES detection module Antibody Dilution Buffer 2 reagent. The antibody solutions were then diluted 1:1 (vol/vol) with varying concentrations of peptide, or diluent as a no peptide control, for 1 h at RT, and 10 µL of each antibody/peptide solution was added to the designated wells of the separation module sampling plate. Samples were run in duplicates or triplicates. Plates were then processed in the WES instrument using default running and detection parameters.

On to “PAAAPGHPLA [central ten amino acid fragment within the N-terminal 15 amino acids]”, for which the “inhibition of 17B4 binding by immunogen fragment (ACE)” value is given as “inhibited binding”. In addition, the “inhibition of 17B4 binding by immunogen fragment (ACE)” value (listed as center sub-domain fragment) is listed as “complete inhibition”.
